Reference: patent EP3117212B1, “METHOD OF STUDYING ABCG2 PROTEIN ACTIVITY AND USE OF 2-AMINOETHYL DIPHENYLBORINATE” (Uniwersytet Lodzki, priority 2014, dated 2015)
Substitutions are numbered along the chain they refer to.

Columns and labels:
Type in all cases: cell-based
human ABCG2 protein = biological target: T1, human ABCG2 protein (Homo sapiens, UniProt Q9UNQ0); experiment: Polyphenol accumulation in SB MDCKII-BCRP cells with/without Ko143, APB conjugate fluorescence (substrate verification); settings: 20 µM compound; for transport substrate for the ABCG2 protein: 1 h, 37°C, with/without 10 µM Ko143, significantly higher fluorescence with Ko143; for transport capacity: relative difference between fluorescence values with/without 10 µM Ko143
T1 construct: host or cells: MDCKII (SB MDCKII-BCRP cell line)
T1 sequence (Q9UNQ0 1-655): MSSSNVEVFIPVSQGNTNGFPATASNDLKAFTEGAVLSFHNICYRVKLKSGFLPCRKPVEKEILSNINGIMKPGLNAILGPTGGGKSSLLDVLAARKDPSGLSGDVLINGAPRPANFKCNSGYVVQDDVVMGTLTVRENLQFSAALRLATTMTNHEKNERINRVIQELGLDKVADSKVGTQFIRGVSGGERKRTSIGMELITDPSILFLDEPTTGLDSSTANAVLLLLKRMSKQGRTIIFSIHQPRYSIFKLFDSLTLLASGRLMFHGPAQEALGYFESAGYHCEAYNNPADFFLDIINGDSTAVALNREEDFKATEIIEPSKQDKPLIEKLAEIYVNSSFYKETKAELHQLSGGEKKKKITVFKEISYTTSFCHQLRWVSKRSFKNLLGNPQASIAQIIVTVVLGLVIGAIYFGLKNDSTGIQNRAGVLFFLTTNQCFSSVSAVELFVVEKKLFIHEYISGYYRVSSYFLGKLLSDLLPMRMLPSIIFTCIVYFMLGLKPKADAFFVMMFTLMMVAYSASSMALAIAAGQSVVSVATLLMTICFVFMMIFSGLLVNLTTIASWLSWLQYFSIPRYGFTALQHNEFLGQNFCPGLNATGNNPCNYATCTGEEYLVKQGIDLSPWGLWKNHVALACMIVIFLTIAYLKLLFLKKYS
Description: The results are shown on Fig. 1. […] The relative difference between the fluorescence values leads to the conclusion that transport capacity is the highest for compounds 9, 3 and 1 and the lowest for compounds 2 and 6.
On Figure 1 fluorescence of the conjugates of APB and polyphenolic compounds is shown for the cell lysates (mean ± the standard error of the mean, n=5; statistically significant differences at the significance level <0.05 are marked with * symbol).

ABCG2 R482K = biological target: T2, ABCG2 R482K (Homo sapiens, UniProt Q9UNQ0, R482K); experiment: Luteolin transport in transfected HeLa cells with/without Ko143, APB conjugate fluorescence; settings: R482K variant in HeLa cells; 10 µM luteolin, 0 or 10 µM Ko143, 1 h
T2 construct: expressed in transfected cells; host or cells: HeLa, transient transfection (FuGene HD), pcDNA6.2/V5 vector
T2 sequence (Q9UNQ0 1-655 R482K): T1 sequence (Q9UNQ0 1-655) with R482K
Procedure: (§1) A plasmid expression vector for the ABCG2 protein was prepared using standard molecular biology techniques. The vector was obtained by cloning of a sequence encoding human ABCG2 and (as an N-terminal fusion protein within the same open reading frame) a sequence encoding TagGFP2 fluorescent protein (obtained from the pTagGFP2-C plasmid produced by Evrogen, cat. no. FP191) into the pcDNA6.2/V5 plasmid. Subsequently, a series of expression vectors for sequential variants of the ABCG2 protein were prepared by performing site-directed mutagenesis in the codons coding particular amino acids in this sequence. For this purpose the Quickchange Lightning kit for site-directed mutagenesis manufactered by AgilentStratagene (cat. no. 210513) was used, in full compliance with the manufacturer's instructions. In this way, the vectors encoding the following sequential variants of the ABCG2 protein were obtained (letters denote the standard IUPAC codes for amino acid residues changed with regard to the wild-type sequence, the number denotes the position of the amino acid residue in the polypeptide chain from the N-terminus of the protein): R482G,R482K, K86M.
(§2) 72 hours before the experiment, the cells were chemically transfected with the above mentioned plasmids using the FuGene HD reagent (product from Promega, cat. no. E2311). The transfection mixture contained 150 µl of OptiMEM culture medium (product from Life Technologies, cat. no. 31985070), 3.3 µg of plasmid DNA and 9.9 µl of Fugene HD. The mixture was vortexed, incubated for 5 minutes and added to 2 ml of medium and the cells on the 6-well plate. 24 hours before the experiment, the cells were plated on a standard black 96-well polystyrene microplate with surface modified for cell culture (product from Thermo Scientific Nunc cat. no. 137101) with 50,000 cells per well in standard DMEM culture medium (product from LifeTechnologies cat. no. 32430) supplemented with 10% fetal bovine serum. […] The cells were then incubated for 1 h in a standard incubator for in vitro cell culture in temperature of 37°C. The incubation was followed by removing the medium and the cells were washed twice with portions of 50 µl of buffered saline (PBS, product from Life Technologies cat. no. 10010) in temperature of 4°C. Then the cells were lysed (solubilized) in 100 µl of PBS with the following additives: 0.5% (v/v) Triton X-100 surfactant (product from Sigma Aldrich, cat. no. T8787) and 0.25 mg/ml 2-aminoethyl-diphenylborinate (APB, CAS no. 208-366-5, product from Sigma Aldrich, cat. no. D9754). The compound APB was added to the PBS solution from a stock solution in DMSO with a concentration of 250 mg/ml permanently stored in temperature of -20°C. The cells were lysed by shaking the microplate in room temperature for 5 minutes.

ABCG2 R482G = biological target: T3, ABCG2 R482G (Homo sapiens, UniProt Q9UNQ0, R482G); experiment: as above; settings: R482G variant in HeLa cells; 10 µM luteolin, 0 or 10 µM Ko143, 1 h
T3 construct: expressed in transfected cells; host or cells: HeLa, transient transfection (FuGene HD), pcDNA6.2/V5 vector
T3 sequence (Q9UNQ0 1-655 R482G): T1 sequence (Q9UNQ0 1-655) with R482G
Procedure: as §1, §2

ABCG2 wild-type = biological target: T4, ABCG2 wild-type (Homo sapiens, UniProt Q9UNQ0); experiment: as above; settings: 10 µM luteolin, 0 or 10 µM Ko143, 1 h
T4 construct: expressed in transfected cells; host or cells: HeLa, transient transfection (FuGene HD), pcDNA6.2/V5 vector
T4 sequence (Q9UNQ0 1-655): T1 sequence (Q9UNQ0 1-655)
Procedure: as §1, §2

ABCG2 K86M = biological target: T5, ABCG2 K86M (Homo sapiens, UniProt Q9UNQ0, K86M); experiment: as above; settings: K86M variant in HeLa cells; 10 µM luteolin, 0 or 10 µM Ko143, 1 h
T5 construct: expressed in transfected cells; host or cells: HeLa, transient transfection (FuGene HD), pcDNA6.2/V5 vector
T5 sequence (Q9UNQ0 1-655 K86M): T1 sequence (Q9UNQ0 1-655) with K86M
Procedure: as §1, §2

O=c1c(O)c(-c2ccc(O)c(O)c2)oc2cc(O)cc(O)c12 [Compound 1, quercetin]
transport substrate for the ABCG2 protein (human ABCG2 protein): ABCG2 protein substrates | transport capacity (human ABCG2 protein): highest

O=c1c(O)c(-c2ccc(O)cc2)oc2cc(O)cc(O)c12 [Compound 2, kaempferol]
transport substrate for the ABCG2 protein (human ABCG2 protein): ABCG2 protein substrates | transport capacity (human ABCG2 protein): lowest

O=c1cc(-c2ccc(O)c(O)c2)oc2cc(O)cc(O)c12 [Compound 3, luteolin]
transport activity towards luteolin (ABCG2 R482K): slightly decreased in relation to the wild-type | transport activity towards luteolin (ABCG2 R482G): similar, maximum transport activity | transport activity towards luteolin (ABCG2 wild-type): similar, maximum transport activity | transport activity towards luteolin (ABCG2 K86M): did not show any transport activity | transport substrate for the ABCG2 protein (human ABCG2 protein): ABCG2 protein substrates | transport capacity (human ABCG2 protein): highest

O=c1c(O)c(-c2ccc(O)c(O)c2)oc2cc(O)ccc12 [Compound 4, fisetin]
transport substrate for the ABCG2 protein (human ABCG2 protein): ABCG2 protein substrates

COc1ccc2oc(-c3ccc(OC)c(OC)c3)c(O)c(=O)c2c1 [Compound 6, 6,3',4'-trimethoxy-3-hydroxyflavone]
transport substrate for the ABCG2 protein (human ABCG2 protein): ABCG2 protein substrates | transport capacity (human ABCG2 protein): lowest

COc1ccc(OC)c(-c2oc3ccccc3c(=O)c2O)c1 [Compound 9, 2',5'-dimethoxy-3-hydroxyflavone]
transport substrate for the ABCG2 protein (human ABCG2 protein): ABCG2 protein substrates | transport capacity (human ABCG2 protein): highest
